# ChEMBL document CHEMBL4699484, “Discovery of small molecule FLT3 inhibitors that are able to overcome drug-resistant mutations” (Bioorg Med Chem Lett, 2020)
# How the values were obtained:
# [1] = target: Receptor-type tyrosine-protein kinase FLT3 (Homo sapiens, UniProt P36888, F691L/ITD); type: cell-based, BaF3
# Description: Inhibition of FLT3 ITD/F691L double mutant (unknown origin) expressed in mouse BaF3 cells
# BaF3 = assay: cells; details: Mus musculus
# Description: Cytotoxicity against mouse BaF3 cells assessed as reduction in cell viability
# [2] = target: T1, Receptor-type tyrosine-protein kinase FLT3 (Homo sapiens, UniProt P36888, ITD); type: cell-based, BaF3
# Description: Inhibition of FLT3 ITD mutant (unknown origin) expressed in mouse BaF3 cells
# [3] = target: Receptor-type tyrosine-protein kinase FLT3 (Homo sapiens, UniProt P36888, D835Y/ITD); type: cell-based, BaF3
# Description: Inhibition of FLT3 ITD/D835Y double mutant (unknown origin) expressed in mouse BaF3 cells
# [4] = target: T1, Receptor-type tyrosine-protein kinase FLT3; assay: Inhibition of human partial length FLT3 ITD mutant expressed in bacterial expression system by Kinomescan method
# STF3A = assay: (§1) Inhibition of Wnt/beta-Catenin signaling (unknown origin) expressed in STF3a cells incubated for 24 hrs by STF luciferase reporter gene assay; type: cell-based; details: Homo sapiens
# [5] = as §1; type: cell-based; details: Homo sapiens
SMILES,IC50 [1] [nM],IC50 (BaF3) [nM],IC50 [2] [nM],IC50 [3] [nM],IC50 [4] [nM],inhibition (STF3A),IC50 [5] [nM]
COc1cc2ncnc(Oc3ccc(NC(=O)Nc4cc(C(C)(C)C)on4)cc3F)c2cc1OC,13.8,> 1990,1.51,7.93,,,
CC(C)(C)c1cc(NC(=O)Nc2ccc(Oc3ccnc4[nH]ncc34)c(F)c2)no1,35,2620,0.292,34.3,,,
COCCOc1cc2c(Oc3ccc(NC(=O)Nc4cc(C(C)(C)C)on4)cc3F)ccnc2cc1OC,20.8,3000,4.91,10.1,,,
CCCOc1cc2c(Oc3ccc(NC(=O)Nc4cc(C(C)(C)C)on4)cc3F)ccnc2cc1OC,296,7770,76.1,160,,,
COc1cc2nccc(Oc3ccc(NC(=O)Nc4cc(C(C)(C)C)on4)cc3F)c2cc1OC(C)C,23.1,2030,6.88,10.6,,,
CCOc1cc2c(Oc3ccc(NC(=O)Nc4cc(C(C)(C)C)on4)cc3F)ccnc2cc1OC,29.9,2880,7.25,10.9,,,
COCCOc1cc2nccc(Oc3ccc(NC(=O)Nc4cc(C(C)(C)C)on4)cc3F)c2cc1OC,11.9,1130,4.73,5.35,,,
CCCOc1cc2nccc(Oc3ccc(NC(=O)Nc4cc(C(C)(C)C)on4)cc3F)c2cc1OC,54.3,4940,19.2,14.9,,,
COc1cc2c(Oc3ccc(NC(=O)Nc4cc(C(C)(C)C)on4)cc3F)ccnc2cc1OCC1CO1 (stereo not given),5270,9200,2650,3540,,,
CCOc1cc2nccc(Oc3ccc(NC(=O)Nc4cc(C(C)(C)C)on4)cc3F)c2cc1OC,8.31,1650,5.2,5.96,,,
CC(C)(C)c1cc(NC(=O)Nc2ccc(Oc3ccnc4nc[nH]c34)c(F)c2)no1,18.6,2080,0.015,12.4,,,
CC(C)(C)c1cc(NC(=O)Nc2ccc(Oc3ncnc4[nH]ncc34)c(F)c2)no1,108,3160,0.038,130,1.3,,
CCOc1cc2nccc(Oc3ccc(NC(=O)Nc4cc(C(C)(C)C)on4)cc3F)c2cc1OCC,32.6,3140,3.08,15.5,,,
COc1cc2nccc(Oc3ccc(NC(=O)Nc4cc(C(C)(C)C)on4)cc3F)c2cc1OC,5.86,1210,0.072,3.48,,Dose-dependent effect,< 500
COCCOc1cc2nccc(Oc3ccc(NC(=O)Nc4cc(C(C)(C)C)on4)cc3F)c2cc1OCCOC,16,2000,5.17,11,,,
CC(C)(C)c1cc(NC(=O)Nc2ccc(Oc3nccc4ccccc34)c(F)c2)no1,> 10000,> 10000,1260,> 10000,,,
COc1cc2c(Oc3ccc(NC(=O)Nc4cc(C(C)(C)C)on4)cc3F)ncnc2cn1,1020,3040,1.2,64.2,,,
COc1cc2c(Oc3ccc(NC(=O)Nc4cc(C(C)(C)C)on4)cc3F)ccnc2cc1OCC(C)C,127,4820,36.5,62.4,,,
CC(C)(C)c1cc(NC(=O)Nc2ccc(Oc3ccnc4[nH]ccc34)c(F)c2)no1,1020,> 10000,141,741,,,
COc1cc2c(Oc3ccc(NC(=O)Nc4cc(C(C)(C)C)on4)cc3F)ccnc2cc1OCC1CCCC1,189,5560,66.5,104,,,
COc1cc2nccc(Oc3ccc(NC(=O)Nc4cc(C(C)(C)C)on4)cc3F)c2cc1OCCCN1CCOCC1,16.8,1840,5.77,6.28,,,
CC(C)(C)c1cc(NC(=O)Nc2ccc(Oc3ccnc4cc(OCC5CCCC5)c(OCC5CCCC5)cc34)c(F)c2)no1,38.9,6500,37.2,27.9,,,
COc1cc2c(Oc3ccc(NC(=O)Nc4cc(C(C)(C)C)on4)cc3F)ccnc2cc1OCCCN1CCOCC1,9.93,1100,3.22,5.09,,,
